Experiment [1] concerns annual sugar beet variety (SLC03). Description: Plant growth regulator activity, postemergence. The format is in vivo. As to conditions: Beta vulgaris, post-emergence, 672 h, 4 weeks after spraying; read-out: Bolting Inhibition (postemergence), concentration with observed effect. The source says:
(§1) Using a regular biennial variety, even a bolting-susceptible variety would require a cold treatment of around 10-16 weeks plus a hormone treatement in conjunction with specific light intensities. Thus, for a screening organism, we selected one which would consistently produce bolting on a regular schedule. The screen is run with an annual sugar beet variety (SLC03) provided by Dr. Richard J. Hecker, Fort Collins, Colo. This variety is an inbred which bolts in the 6- to 8-leaf stage without any need for vernalization. This allows the screen to be run entirely in the greenhouse with all 110 chemical compounds tested on one tray. The sugarbeets are grown in 3×3 inch square pots in a greenhouse sandy loam potting mix. The sugarbeets are sprayed with test compounds when they are 2 to 3 weeks old (2 true leaves). The compounds are dissolved in acetone and diluted with water containing Tween 20 as a wetting agent. The concentration of acetone in the final spray is 20% and the concentration of Tween 20 is 0.05 percent. The plants are examined for the appearance of a bolt 4 weeks after spraying.

Experiment [2] relates to nitrification of ammonium nitrogen. Description: Suppression of nitrification of ammonium nitrogen in soil. As to conditions: 27° C. In outline: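 Soil (20 g) moistened to its 1/3 bar tension value, mixed with test chemical and incubated sealed for two weeks at 27° C. Nitrate extracted with ammonium sulfate solution and measured by nitrate-specific ion electrode; value given as % NH4-N remaining.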

Experiment [3] concerns wheat. Description: Preemergent control of plant species. The format is in vivo, Triticum aestivum. The following applies: Triticum aestivum, pre-emergence, 336 h; 0.25 lb/acre; read-out: percent preemergent control. In outline: (§2)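 Growth reduction relative to untreated plants of the same species, assessed two weeks after treatment, defines the control value. Compositions, mostly aqueous emulsions, were deposited uniformly on seeded greenhouse soil beds at the tabulated rates, with a water-treated bed as reference.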

Experiment [4] has as its system wild oats. Description: Preemergent control of plant species. The format is in vivo. As to conditions: Avena fatua, pre-emergence, 336 h; 0.25 lb/acre; read-out: percent preemergent control. The procedure, abridged:
as §2

In experiment [5] the test system is jimsonweed. Description: Preemergent control of plant species. It is filed as in vivo, Datura stramonium. As to conditions: Datura stramonium, pre-emergence, 336 h; 0.25 lb/acre; read-out: percent preemergent control. The procedure, abridged:
as §2

For experiment [6], the system named is soybean. Description: Preemergent control of plant species. It is filed as in vivo, Glycine max. The following applies: Glycine max, pre-emergence, 336 h; 0.25 lb/acre; read-out: percent preemergent control. In outline:
as §2

The subject of experiment [7] is corn. Description: Preemergent control of plant species. It is filed as in vivo, Zea mays. The following applies: Zea mays, pre-emergence, 336 h; 0.25 lb/acre; read-out: percent preemergent control. The procedure, abridged:
as §2

The test system of experiment [8] is sugar beet. Description: Preemergent control of plant species. It is filed as in vivo, Beta saccharifera. The following applies: Beta vulgaris, pre-emergence, 336 h; 0.25 lb/acre; read-out: percent preemergent control. The procedure, abridged:
as §2

Experiment [9] deals with cotton. Description: Preemergent control of plant species. As to conditions: Gossypium hirsutum, pre-emergence, 336 h; 0.25 lb/acre; read-out: percent preemergent control. It is filed as in vivo, Gossypium spp. In outline:
as §2

Experiment [10] concerns barnyardgrass. Description: Preemergent control of plant species. The format is in vivo, Echinochloa crusgalli. As to conditions: Echinochloa crus-galli, pre-emergence, 336 h; 0.25 lb/acre; read-out: percent preemergent control. In outline: as §2
In experiment [11] the test system is rape. Description: Preemergent control of plant species. The format is in vivo, Brassica napus. The following applies: Brassica napus, pre-emergence, 336 h; 0.25 lb/acre; read-out: percent preemergent control. The procedure, abridged: as §2
For experiment [12], the system named is yellow nutsedge. Description: Preemergent control of plant species. The format is in vivo, Cyperus esculentus. The following applies: Cyperus, pre-emergence, 336 h; 0.25 lb/acre; read-out: percent preemergent control. The procedure, abridged: as §2
In experiment [13] the test system is rice. Description: Preemergent control of plant species. It is filed as in vivo, Oryza sativa. As to conditions: Oryza sativa, pre-emergence, 336 h; 0.25 lb/acre; read-out: percent preemergent control. The procedure, abridged:
as §2

Experiment [14] concerns johnson grass. Description: Preemergent control of plant species. The format is in vivo, Sorghum halepense. As to conditions: Sorghum halepense, pre-emergence, 336 h; 0.25 lb/acre; read-out: percent preemergent control. The procedure, abridged:
as §2

In experiment [15] the test system is annual morning glory. Description: Preemergent control of plant species. As to conditions: Ipomoea, pre-emergence, 336 h; 0.25 lb/acre; read-out: percent preemergent control. The format is in vivo, Ipomoea spp. The procedure, abridged: as §2
Experiment [16] relates to velvetleaf. Description: Preemergent control of plant species. As to conditions: Abutilon theophrasti, pre-emergence, 336 h; 0.25 lb/acre; read-out: percent preemergent control. The format is in vivo, Abutilon theophrasti. The procedure, abridged:
as §2

The subject of experiment [17] is yellow foxtail. Description: Preemergent control of plant species. The format is in vivo, Setaria lutescens. The following applies: Setaria, pre-emergence, 336 h; 0.25 lb/acre; read-out: percent preemergent control. The procedure, abridged:
as §2

For experiment [18], the system named is annual sugar beet variety (SLC03). Description: Plant growth regulator activity, preemergence. The format is in vivo. As to conditions: for minimal effective concentration: Beta vulgaris, pre-emergence, 6-7 weeks, read-out: Bolting Inhibition (preemergence), concentration with observed effect.
Excerpt: as §1
Preemergence tests are conducted by spraying formulated chemical on seeds placed on potting soil. The sprayed seeds are then covered with 1/4 inch of potting soil and the pots are watered. Bolting is evaluated 6-7 weeks after the initiation of the test. At this time untreated plants have a vigorous bolting stem with visible flowers.

Experiment [19] relates to velvetleaf. Description: Postemergent control of plant species. It is filed as in vivo, Abutilon theophrasti. As to conditions: Abutilon theophrasti, post-emergence, 336 h, read-out: percent postemergent control. The procedure, abridged:
(§3)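 Foliar spray, 2-4 leaf stage, greenhouse. Formulation: acetone solution (2x final conc.) mixed 1:1 with water + 0.1% surface active agent. ~2 wk hold, watered as needed. Readout = % growth reduction vs untreated same-species controls.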

Experiment [20] concerns rape. Description: Postemergent control of plant species. The format is in vivo, Brassica napus. As to conditions: Brassica napus, post-emergence, 336 h, read-out: percent postemergent control. The procedure, abridged:
as §3

The next experiment relates to pigweed. Description: Postemergent control of plant species. As to conditions: Amaranthus retroflexus, post-emergence, 336 h, read-out: percent postemergent control. The format is in vivo, Amaranthus spp. The procedure, abridged:
as §3

In experiment [21] the test system is johnson grass. Description: Postemergent control of plant species. The format is in vivo, Sorghum halepense. The following applies: Sorghum halepense, post-emergence, 336 h, read-out: percent postemergent control. In outline: as §3
The test system of experiment [22] is wheat. Description: Postemergent control of plant species. It is filed as in vivo, Triticum aestivum. As to conditions: Triticum aestivum, post-emergence, 336 h, read-out: percent postemergent control. In outline:
as §3

Experiment [23] has as its system corn. Description: Postemergent control of plant species. It is filed as in vivo, Zea mays. As to conditions: Zea mays, post-emergence, 336 h, read-out: percent postemergent control. In outline:
as §3

For experiment [24], the system named is annual morning glory. Description: Postemergent control of plant species. The format is in vivo, Ipomoea spp. As to conditions: Ipomoea, post-emergence, 336 h, read-out: percent postemergent control. In outline: as §3
The test system of experiment [25] is wild oats. Description: Postemergent control of plant species. It is filed as in vivo, Avena fatua. As to conditions: Avena fatua, post-emergence, 336 h, read-out: percent postemergent control. In outline:
as §3

The subject of experiment [26] is yellow nutsedge. Description: Postemergent control of plant species. The format is in vivo, Cyperus esculentus. As to conditions: Cyperus, post-emergence, 336 h, read-out: percent postemergent control. The procedure, abridged:
as §3

In a further experiment the test system is sorghum. Description: Postemergent control of plant species. It is filed as in vivo, Sorghum vulgare. As to conditions: Sorghum, post-emergence, 336 h, read-out: percent postemergent control. The procedure, abridged:
as §3

The subject of experiment [27] is cotton. Description: Postemergent control of plant species. It is filed as in vivo, Gossypium spp. The following applies: Gossypium hirsutum, post-emergence, 336 h, read-out: percent postemergent control. In outline:
as §3

The subject of experiment [28] is sugar beet. Description: Postemergent control of plant species. It is filed as in vivo, Beta saccharifera. The following applies: Beta vulgaris, post-emergence, 336 h, read-out: percent postemergent control. The procedure, abridged: as §3
Experiment [29] has as its system soybean. Description: Postemergent control of plant species. The format is in vivo, Glycine max. The following applies: Glycine max, post-emergence, 336 h, read-out: percent postemergent control. The procedure, abridged: as §3
Experiment [30] concerns barnyardgrass. Description: Postemergent control of plant species. It is filed as in vivo, Echinochloa crusgalli. The following applies: Echinochloa crus-galli, post-emergence, 336 h, read-out: percent postemergent control. The procedure, abridged: as §3
Experiment [31] concerns jimsonweed. Description: Postemergent control of plant species. The format is in vivo, Datura stramonium. The following applies: Datura stramonium, post-emergence, 336 h, read-out: percent postemergent control. In outline:
as §3

Experiment [32] relates to yellow foxtail. Description: Postemergent control of plant species. The format is in vivo, Setaria lutescens. As to conditions: Setaria, post-emergence, 336 h, read-out: percent postemergent control. The procedure, abridged:
as §3

Experiment [33] relates to rice. Description: Postemergent control of plant species. As to conditions: Oryza sativa, post-emergence, 336 h, read-out: percent postemergent control. The format is in vivo, Oryza sativa. The procedure, abridged:
as §3

For another experiment, the system named is crabgrass. Description: Postemergent control of plant species. The format is in vivo, Digitaria spp. As to conditions: Digitaria sanguinalis, post-emergence, 336 h, read-out: percent postemergent control. The procedure, abridged: as §3
The subject of a further experiment is cocklebur. Description: Postemergent control of plant species. It is filed as in vivo, Xanthium spp. As to conditions: Xanthium strumarium, post-emergence, 336 h, read-out: percent postemergent control. The procedure, abridged:
as §3

On to `Cc1cc(C)n2nc(S(=O)(=O)Nc3c(Cl)cccc3-c3ccccc3)nc2n1` [Compound 63], for which the minimal effective concentration in experiment [1] worked out at 5 µg/mL. Besides, the “% NH4-N Remaining After 2 Weeks Incubation” value stood at 6% in experiment [2] (0.06 ppm), 6% in experiment [2] (0.25 ppm), 36% in experiment [2] (1 ppm) and 61% in experiment [2] (4 ppm).

On to `Cc1cc(C)n2nc(S(=O)(=O)Nc3c(C)ccc(Cl)c3C)nc2n1` [Compound 65], for which the plant injury at 280.212 g/ha with wheat [3] was found to be 0%; with soybean [6] it was 100%; in the experiment on corn [7], 0%; in the experiment with sugar beet [8], 100%; in the experiment with cotton [9], 0%; in the experiment on rape [11] it was 20%. Also, the plant injury at 280.212 g/ha in the experiment on rice [13] was found to be 30%. Further, the pest or weed control at 280.212 g/ha in the experiment with wild oats [4] amounted to 0%; in the experiment with jimsonweed [5] it was 90%; in the experiment with barnyardgrass [10], 70%; in the experiment with yellow nutsedge [12], 95%; with johnson grass [14], 95%; with annual morning glory [15], 50%. The pest or weed control at 280.212 g/ha in the experiment with velvetleaf [16] was determined as 20%; in the experiment with yellow foxtail [17], 95%. In experiment [1], the minimal effective concentration was 12 µg/mL. For the same compound, the “% NH4-N Remaining After 2 Weeks Incubation” value in experiment [2] (0.06 ppm) amounted to 5%; in [2] (0.25 ppm), 52%; in [2] (1 ppm), 65%; in [2] (4 ppm), 85%.

In the case of `COc1cccc(C=NO)c1NS(=O)(=O)c1nc2nc(C)cc(C)n2n1` [Compound 71], the minimal effective concentration in experiment [18] came out at 400 µg/mL. Moreover, the pest or weed control at 500 ppm in the experiment on velvetleaf [19] was found to be 70%; in the experiment with pigweed it was 0%; in the experiment with johnson grass [21] it was 0%; in the experiment with annual morning glory [24] it was 0%; in the experiment with wild oats [25], 0%; in the experiment with yellow nutsedge [26] it was 0%. Besides, the pest or weed control at 500 ppm in the experiment with barnyardgrass [30] is 0%; in the experiment with jimsonweed [31], 60%; with yellow foxtail [32], 0%; in the experiment on crabgrass it was 20%; with cocklebur, 0%. Also, the plant injury at 500 ppm is 70% in the experiment on rape [20]; 0% in the experiment on wheat [22]; 0% in the experiment on corn [23]; 0% in the experiment on sorghum; 75% in the experiment with cotton [27]; 70% in the experiment on sugar beet [28]. The plant injury at 500 ppm in the experiment with soybean [29] was 35%; in the experiment with rice [33], 0%. Besides, the “% NH4-N Remaining After 2 Weeks Incubation” value in [2] (0.06 ppm) was found to be 35%; in [2] (0.25 ppm) it was 49%; in [2] (1 ppm), 84%; in [2] (4 ppm), 90%.

Regarding `Cc1cc(C)n2nc(S(=O)(=O)Nc3c(F)cccc3Oc3ccc(C(F)(F)F)cc3Cl)nc2n1` [Compound 98], in experiment [1], the minimal effective concentration amounted to 400 µg/mL. For the same compound, the “% NH4-N Remaining After 2 Weeks Incubation” value in experiment [2] (0.06 ppm) was found to be 0%; in [2] (0.25 ppm), 25%; in [2] (1 ppm), 0%; in [2] (4 ppm) it was 37%.

Consider `Cc1nc2nc(S(=O)(=O)Nc3ccccc3Cl)nn2c(C)c1Cl` [Compound 198], for which the “observed effect (preemergence)” value in experiment [18] (400 ppm) was “stunting”. Also, in experiment [18], the minimal effective concentration came out at 400 µg/mL. In addition, the “% NH4-N Remaining After 2 Weeks Incubation” value was found to be 22% in experiment [2] (0.06 ppm), 37% in [2] (0.25 ppm), 53% in [2] (1 ppm) and 74% in experiment [2] (4 ppm).
